Laboratory results reported in patent publication US7528239B1, “Receptor that binds trail” (Immunex Corporation, priority 1997, dated 2009).
Peptide text beside a SMILES is read from it. * marks the point of attachment. Cbz = O=C(OCc1ccccc1)*; CH2F = FC*

Assays:
[1] = system: CV-1/EBNA cells expressing TRAIL-R; assay: TRAIL-R-induced death of transfected CV-1/EBNA cells (lacZ co-transfection, X-gal staining); type: cell-based, African green monkey; conditions: 48 hours after transfection
Protocol: CV-1/EBNA cells were transfected, by the DEAE-dextran method, with expression plasmids for TRAIL-R (pDC409-TRAIL-R), together with a threefold excess of empty expression vector (pDC409) in the presence or absence of z-VAD-fmk (10 μM; in the culture medium), or together with a threefold excess of expression vector pDC409-CrmA, pDC409-p35, or pDC409-FADD-DN. In addition, 400 ng/slide of an expression vector for the E. coli lacz gene was co-transfected together with all DNA mixes. The transfected cells were cultured in chambers mounted on slides.
48 hours after transfection, cells were washed with PBS, fixed with glutaraldehyde and incubated with X-gal (5-bromo-4-chloro-3-indoxyl-β-D-galactopyranoside). Cells expressing β-galactosidase stain blue. A decrease in the percentage of stained cells indicates loss of β-galactosidase expression, and correlates with death of cells that express the protein(s) co-transfected with the lacz gene.

[2] = biological target: T1, full length human TRAIL-R (Homo sapiens, UniProt O14763, V191A); assay: FACS binding assay of LZ-TRAIL to CV-1/EBNA cells expressing recombinant TRAIL-R; conditions: LZ-TRAIL 5 μg/ml; cells co-transfected with TRAIL-R and CrmA vectors compared to CrmA vector alone; 48 hours after transfection
T1 construct: expressed in transfected cells; host or cells: CV-1/EBNA cells, co-transfected with pDC409-CrmA
Protocol: Full length human TRAIL-R was expressed and tested for the ability to bind TRAIL. The binding assay was conducted as follows.
A fusion protein comprising a leucine zipper peptide fused to the N-terminus of a soluble TRAIL polypeptide (LZ-TRAIL) was employed in the assay. An expression construct was prepared, essentially as described for preparation of the Flag®-TRAIL expression construct in Wiley et al. (Immunity, 3:673-682, 1995; hereby incorporated by reference), except that DNA encoding the Flag® peptide was replaced with a sequence encoding a modified leucine zipper that allows for trimerization. The construct, in expression vector pDC409, encoded a leader sequence derived from human cytomegalovirus, followed by the leucine zipper moiety fused to the N-terminus of a soluble TRAIL polypeptide. The TRAIL polypeptide comprised amino acids 95-281 of human TRAIL (a fragment of the extracellular domain), as described in Wiley et al. (supra). […]
CV-1/EBNA cells were co-transfected with pDC409-TRAIL-R together with pDC409-CrmA, or with pDC409-CrmA alone. […] 48 hours after transfection, cells were detached non-enzymatically and incubated with LZ-TRAIL (5 μg/ml), a biotinylated anti-LZ monoclonal antibody (5 μg/ml), and phycoerythrin-conjugated streptavidin (1:400), before analysis by fluorescence-activated cell scanning (FACS). […]

[3] = system: TRAIL-induced apoptosis of Jurkat cells; assay: Blocking of TRAIL-induced apoptosis of Jurkat cells (MTT cell viability assay); type: cell-based, human; conditions: LZ-TRAIL 13 ng/ml, test substance serially diluted from 10 μg/ml
Protocol: TRAIL-R was tested for the ability to block TRAIL-induced apoptosis of Jurkat cells. The TRAIL-R employed in the assay was in the form of a fusion protein designated sTRAIL-R/Fc, which comprised the extracellular domain of human TRAIL-R, fused to the N-terminus of an Fc polypeptide derived from human IgG1.
A fusion protein designated TNF-R2—Fc, employed as a control, comprised the extracellular domain of the TNF receptor protein known as p75 or p80 TNF-R (Smith et al., Science 248:1019-1023, 1990; Smith et al. Cell 76:959-962, 1994), fused to an Fc polypeptide. A mouse monoclonal antibody that is a blocking antibody directed against human TRAIL, was employed in the assay as well.
Jurkat cells were incubated with varying or constant concentrations of LZ-TRAIL (the LZ-TRAIL fusion protein described in example 6), in the absence or presence of varying concentrations of sTRAIL-R-Fc, TNF-R2-Fc, or the TRAIL-specific monoclonal antibody. Cell death was quantitated using an MTT cell viability assay (MTT is 3-[4,5-dimethylthiazol-2-yl]-2,5-diphenyltetrazolium bromide), as previously described (Mosmann, J. Immunol. Methods 65:55-63, 1983). […]

In the case of `COC(=O)C[C@H](NC(=O)[C@H](C)NC(=O)[C@@H](NC(=O)OCc1ccccc1)C(C)C)C(=O)CF` [z-VAD-fmk, benzyloxycarbonyl-Val-Ala-Asp-fluoromethylketone, reference compound] (Cbz-Val-Ala-Asp(OMe)-CH2F), the “reduction of death of transfected cells expressing TRAIL-R” value ([1]; 10 μM in the culture medium) is reported as “effectively reduced death”.

For “LZ-TRAIL: leucine zipper peptide fused to the N-terminus of a soluble TRAIL polypeptide (amino acids 95-281 of human TRAIL)”, the “binding of LZ-TRAIL to transfected cells” value [2] was “significantly enhanced binding”.

In the case of “sTRAIL-R/Fc: extracellular domain of human TRAIL-R, fused to the N-terminus of an Fc polypeptide derived from human IgG1”, the “blocking of TRAIL-induced apoptosis (percent cell death)” value [3] is reported as “blocked TRAIL-induced apoptosis in a dose dependent fashion” and the “blocking of TRAIL-induced apoptosis (percent cell death)” value ([3]; listed as soluble TRAIL-R/Fc fusion protein) is reported as “blocked TRAIL-induced apoptosis”.

B1: baculovirus p35: 35-kilodalton protein encoded by Autographa californica nuclear polyhedrosis virus, expressed from pDC409-p35 (protein, UniProt P08160 1-299, looked up)
Early 35 kDa protein: MCVIFPVEIDVSQTIIRDCQVDKQTRELVYINKIMNTQLTKPVLMMFNISGPIRSVTRKNNNLRDRIKSKVDEQFDQLERDYSDQMDGFHDSIKYFKDEHYSVSCQNGSVLKSKFAKILKSHDYTDKKSIEAYEKYCLPKLVDERNDYYVAVCVLKPGFENGSNQVLSFEYNPIGNKVIVPFAHEINDTGLYEYDVVAYVDSVQFDGEQFEEFVQSLILPSSFKNSEKVLYYNEASKNKSMIYKALEFTTESSWGKSEKYNWKIFCNGFIYDKKSKVLYVKLHNVTSALNKNVILNTIK
With B1 the “reduction of death of transfected cells expressing TRAIL-R” value ([1]; co-transfected, threefold excess of expression vector) was “effectively reduced death”.
